Several values for one entry are separate records, joined by “and”; a condition that tells them apart may be missing. Identical values can stand only once. Square brackets hold non-standard residues; d marks the D form. Peptide text beside a SMILES is read from it. Cya = N[C@@H](CS(=O)(=O)O)C(=O)O
Test system: study eye of subjects with intermediate non-exudative AMD
Experiment: SD-OCT Analysis 2 (thickness, volume, map coverage of retinal layers)
Format: in vivo, human
Conditions: change from baseline at Week 32
Experimental: Numerous study assessments were conducted at various time points throughout the study. Included among these study assessments were; refractive eye examinations, determinations of BCVA AND low-luminance BCVA, Lanthony D-15 color vision test, measurement of intraocular pressure (IOP), Indirect ophthalmoscopy/dilated fundus examinations and spectral-domain optical coherence tomography (SD-OCT). Also, blood and saliva samples were obtained from each subject for genetic analysis. The above-listed study assessments were performed at the time points indicated in Table 1, below: The OCT scans were analyzed by two (2) unrelated experts. In Analysis #2, the OCT images of study eyes were analyzed to determine mean thickness and mean volume of numerous retinal subfields and layer segments at baseline and at Week 12 for sham eyes and at baseline and at Week 32 for risuteganib eyes, to document any significant differences between groups of eyes based on baseline measurements or changes from baseline in those measurements. In addition to the quantitative analysis of OCT images, OCT Analysis #2 included qualitative assessment of the OCT images to identify GA, pseudodrusen, and disruption of the ELM and EZ layers. FIGS. 9A, 9B and 9C illustrate the level of varying pathology within the ELM based on quantitative mapping that were also assessed, with FIG. 9A (left) showing no ELM disruption, FIG. 9B (center) showing segmental disruption, and FIG. 9C showing diffuse disruption.

[1] = risuteganib nonresponder eyes, n = 12
[2] = risuteganib responder eyes, n = 12
[3] = risuteganib super-responder eyes, n = 8

With `C[C@@H](O)[C@H](NC(=O)[C@H](CS(=O)(=O)O)NC(=O)CNC(=O)[C@H](CCCNC(=N)N)NC(=O)CN)C(=O)N1CCC[C@H]1C(=O)O` [risuteganib, Glycyl-L-arginylglycyl-3-sulfo-L-alanyl-L-threonyl-L-proline] (H-GRG[Cya]TP-OH) the “Change in mean thickness, Inner retina mid subfield” value [1] was 2.274 μm, the “Change in mean thickness, ONL-EZ central subfield” value [1] was −6.486 μm and the “Change in mean thickness, ONL-EZ mid subfield” value [1] was −4.522 μm. For the same compound, the “Change in mean thickness, ONL-RPE central subfield” value [1] was −7.877 μm, the “Change in mean thickness, ONL-RPE foveal center” value [1] was −7.626 μm and the “Change in mean thickness, ONL-RPE mid subfield” value [1] was −6.320 μm. For the same compound, the “Change in mean thickness, RPE-BM central subfield” value [1] was −0.118 μm, the “Change in mean thickness, RPE-BM foveal center” value [1] was −3.740 μm and the “Change in mean thickness, RPE-BM mid subfield” value [1] was 1.114 μm. For the same compound, the “Change in mean thickness, Total retinal central subfield” value [1] was −5.981 μm, the “Change in mean thickness, Total retinal foveal center” value [1] was −9.112 μm and the “Change in mean thickness, Total retinal mid subfield” value [1] was −4.046 μm. The “Change in volume, ELM-EZ central subfield” value [1] was −0.001 mm^3, the “Change in volume, ELM-EZ mid subfield” value [1] was 0.002 mm^3 and the “Change in volume, ELM-RPE” value [1] was 0.009 mm^3. For the same compound, the “Change in volume, ELM-RPE central subfield” value [1] was −0.002 mm^3, the “Change in volume, ELM-RPE mid subfield” value [1] was −0.003 mm^3 and the “Change in volume, EZ-RPE” value [1] was 0.005 mm^3. The “Change in volume, EZ-RPE central subfield” value [1] was −0.001 mm^3, the “Change in volume, EZ-RPE mid subfield” value [1] was −0.006 mm^3 and the “Change in volume, ONL-EZ central subfield” value [1] was −0.005 mm^3. For the same compound, the “Change in volume, ONL-EZ mid subfield” value [1] was −0.014 mm^3, the “Change in volume, ONL-RPE” value [1] was −0.026 mm^3 and the “Change in volume, ONL-RPE central subfield” value [1] was −0.006 mm^3. For the same compound, the “Change in volume, ONL-RPE mid subfield” value [1] was −0.020 mm^3, the “Change in volume, RPE-BM” value [1] was 0.037 mm^3 and the “Change in volume, RPE-BM central subfield” value [1] was 0.000 mm^3. The “Change in volume, RPE-BM mid subfield” value [1] was 0.004 mm^3, the “Change in volume, Total retinal” value [1] was 0.091 mm^3 and the “Change in volume, Total retinal central subfield” value [1] was −0.004 mm^3. For the same compound, the “Change in volume, Total retinal mid subfield” value [1] was −0.012 mm^3, the “Map coverage, 0 μm EZ” value [1] was 1.469% and the “Map coverage, 0 μm RPE-BM” value [1] was 1.465%. The “Map coverage, 10 μm EZ” value [1] was 1.332%, the “Map coverage, 20 μm EZ” value [1] was 1.288% and the “Map coverage, 50 μm RPE-BM” value [1] was −1.794%. For the same compound, the “Map coverage, 150 μm RPE-BM” value [1] was 2.143%, the “Map coverage, 250 μm RPE-BM” value [1] was 0.000% and the “Change in mean thickness, ELM-EZ central subfield” value [2] was −2.322 μm. For the same compound, the “Change in mean thickness, ELM-EZ mid subfield” value [2] was −0.967 μm, the “Change in mean thickness, ELM-RPE central subfield” value [2] was −3.102 μm and the “Change in mean thickness, ELM-RPE foveal center” value [2] was −0.000 μm and 0.000 μm. The “Change in mean thickness, ELM-RPE mid subfield” value [2] was −2.141 μm, the “Change in mean thickness, EZ-RPE central subfield” value [2] was −0.779 μm and the “Change in mean thickness, EZ-RPE foveal center” value [2] was 0.975 μm. For the same compound, the “Change in mean thickness, EZ-RPE mid subfield” value [2] was −1.174 μm, the “Change in mean thickness, Inner retina central subfield” value [2] was 5.864 μm and the “Change in mean thickness, Inner retina mid subfield” value [2] was 5.512 μm. The “Change in mean thickness, ONL-EZ central subfield” value [2] was −5.775 μm, the “Change in mean thickness, ONL-EZ mid subfield” value [2] was −5.386 μm and the “Change in mean thickness, ONL-RPE central subfield” value [2] was −6.555 μm. For the same compound, the “Change in mean thickness, ONL-RPE foveal center” value [2] was 0.650 μm, the “Change in mean thickness, ONL-RPE mid subfield” value [2] was −6.561 μm and the “Change in mean thickness, RPE-BM central subfield” value [2] was −8.238 μm. For the same compound, the “Change in mean thickness, RPE-BM foveal center” value [2] was −12.512 μm, the “Change in mean thickness, RPE-BM mid subfield” value [2] was −5.287 μm and the “Change in mean thickness, Total retinal central subfield” value [2] was −0.691 μm. The “Change in mean thickness, Total retinal foveal center” value [2] was 0.804 μm, the “Change in mean thickness, Total retinal mid subfield” value [2] was −1.049 μm and the “Change in volume, ELM-EZ central subfield” value [2] was −0.002 mm^3. The “Change in volume, ELM-EZ mid subfield” value [2] was −0.003 mm^3, the “Change in volume, ELM-RPE” value [2] was 0.086 mm^3 and the “Change in volume, ELM-RPE central subfield” value [2] was −0.002 mm^3. The “Change in volume, ELM-RPE mid subfield” value [2] was −0.007 mm^3, the “Change in volume, EZ-RPE” value [2] was −0.059 mm^3 and the “Change in volume, EZ-RPE central subfield” value [2] was −0.001 mm^3. For the same compound, the “Change in volume, EZ-RPE mid subfield” value [2] was −0.004 mm^3, the “Change in volume, ONL-EZ central subfield” value [2] was −0.004 mm^3 and the “Change in volume, ONL-EZ mid subfield” value [2] was −0.017 mm^3. For the same compound, the “Change in volume, ONL-RPE” value [2] was 0.009 mm^3, the “Change in volume, ONL-RPE central subfield” value [2] was −0.005 mm^3 and the “Change in volume, ONL-RPE mid subfield” value [2] was −0.021 mm^3. The “Change in volume, RPE-BM” value [2] was −0.049 mm^3, the “Change in volume, RPE-BM central subfield” value [2] was −0.007 mm^3 and the “Change in volume, RPE-BM mid subfield” value [2] was −0.017 mm^3. For the same compound, the “Change in volume, Total retinal” value [2] was −0.188 mm^3, the “Change in volume, Total retinal central subfield” value [2] was 0.000 mm^3 and the “Change in volume, Total retinal mid subfield” value [2] was −0.004 mm^3. For the same compound, the “Map coverage, 0 μm EZ” value [2] was 3.679%, the “Map coverage, 0 μm RPE-BM” value [2] was 1.099% and the “Map coverage, 10 μm EZ” value [2] was 3.699%. The “Map coverage, 20 μm EZ” value [2] was 3.574%, the “Map coverage, 50 μm RPE-BM” value [2] was −3.494% and the “Map coverage, 150 μm RPE-BM” value [2] was 3.335%. The “Map coverage, 250 μm RPE-BM” value [2] was −0.011%, the “Change in mean thickness, ELM-EZ central subfield” value [3] was −1.658 μm and the “Change in mean thickness, ELM-EZ mid subfield” value [3] was −1.049 μm. For the same compound, the “Change in mean thickness, ELM-RPE central subfield” value [3] was −3.461 μm and the “Change in mean thickness, ELM-RPE foveal center” value [3] was 2.925 μm.
